PubChem BioAssay AID248 (DTP/NCI, 2004)
Inconclusive results and toxic doses are left out.

Tested on: L1210 leukemia ip in BDF1 mice, survival T/C
Assay: NCI In Vivo Anticancer Drug Screen. Data for tumor model L1210 Leukemia (intraperitoneal) in B6D2F1 (BDF1) mice
Settings: endpoint: mean survival time, higher = longer survival
Procedure, shortened: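 Ratio derived from survival: compound-dosed mice over vehicle-dosed mice, all bearing a transplantable tumor.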

[1] = dose: 200.0 mg/kg/injection, schedule: Q04DX003 (ip), vehicle: Klucel (hydroxypropylcellulose) (HPC)
[2] = dose: 400.0 mg/kg/injection, schedule: Q04DX003 (ip), vehicle: Klucel (hydroxypropylcellulose) (HPC)
[3] = dose: 100.0 mg/kg/injection, schedule: Q01DX001 (ip), vehicle: saline
[4] = dose: 200.0 mg/kg/injection, schedule: Q01DX001 (ip), vehicle: saline
[5] = dose: 400.0 mg/kg/injection, schedule: Q01DX001 (ip), vehicle: saline
[6] = dose: 100.0 mg/kg/injection, schedule: Q04DX003 (ip), vehicle: Klucel (hydroxypropylcellulose) (HPC)
[7] = dose: 100.0 mg/kg/injection, schedule: Q01DX009 (ip), vehicle: saline with Tween-80
[8] = dose: 100.0 mg/kg/injection, schedule: Q01DX009 (ip), vehicle: Klucel (hydroxypropylcellulose) (HPC)
[9] = dose: 200.0 mg/kg/injection, schedule: Q01DX009 (ip), vehicle: Klucel (hydroxypropylcellulose) (HPC)
[10] = dose: 400.0 mg/kg/injection, schedule: Q01DX009 (ip), vehicle: Klucel (hydroxypropylcellulose) (HPC)
[11] = dose: 50.0 mg/kg/injection, schedule: Q01DX001 (ip), vehicle: other
[12] = dose: 100.0 mg/kg/injection, schedule: Q01DX001 (ip), vehicle: other
[13] = dose: 200.0 mg/kg/injection, schedule: Q01DX001 (ip), vehicle: other
[14] = dose: 400.0 mg/kg/injection, schedule: Q01DX001 (ip), vehicle: other

Compound: CC1(C)N=C(N)N=C(N)N1c1cccc(Br)c1
- T/C (dose: 2.5 mg/kg/injection, schedule: Q01DX Z (ip), vehicle: saline): 121 % of control
- T/C (dose: 11.0 mg/kg/injection, schedule: Q01DX Z (ip), vehicle: carboxymethylcellulose (CMC)): 117 % of control
- T/C (dose: 16.0 mg/kg/injection, schedule: Q01DX Z (ip), vehicle: saline): 162 % of control
- T/C (dose: 25.0 mg/kg/injection, schedule: Q01DX Z (ip), vehicle: saline): 168 % of control
- T/C (dose: 37.0 mg/kg/injection, schedule: Q01DX Z (ip), vehicle: carboxymethylcellulose (CMC)): 105 % of control
- T/C (dose: 50.0 mg/kg/injection, schedule: Q01DX Z (ip), vehicle: methylcellulose (MC)): 97 % of control
- T/C (dose: 60.0 mg/kg/injection, schedule: Q01DX Z (ip), vehicle: carboxymethylcellulose (CMC)): 107 % of control
- T/C (dose: 75.0 mg/kg/injection, schedule: Q01DX001 (ip), vehicle: other): 103 % of control
- T/C (dose: 90.0 mg/kg/injection, schedule: Q01DX Z (ip), vehicle: carboxymethylcellulose (CMC)): 90 % of control
- T/C (dose: 150.0 mg/kg/injection, schedule: Q01DX001 (ip), vehicle: other): 108 % of control

Compound: Cc1ccc(S(=O)(=O)OCC2OC(OCc3ccccc3)C3OC(C)(C)OC23)cc1 (stereo unspecified)
- T/C (dose: 50.0 mg/kg/injection, schedule: Q04DX003 (ip), vehicle: Klucel (hydroxypropylcellulose) (HPC)): 91 % of control
- T/C [1]: 88 % of control
- T/C [2]: 92 % of control

Compound: CCCC[n+]1cccc(C(N)=O)c1
- T/C (dose: 100.0 mg/kg/injection, schedule: Q04DX003 (ip), vehicle: saline): 100 % of control
- T/C (dose: 200.0 mg/kg/injection, schedule: Q04DX003 (ip), vehicle: saline): 100 % of control
- T/C (dose: 400.0 mg/kg/injection, schedule: Q04DX003 (ip), vehicle: saline): 89 % of control

Compound: Cc1ccc(C2(O)CC3CCC2(c2ccc(C)cc2)C3)cc1 (stereo unspecified)
- T/C (dose: 50.0 mg/kg/injection, schedule: Q01DX001 (ip), vehicle: carboxymethylcellulose (CMC)): 95 % of control
- T/C (dose: 100.0 mg/kg/injection, schedule: Q01DX001 (ip), vehicle: carboxymethylcellulose (CMC)): 101 % of control
- T/C (dose: 200.0 mg/kg/injection, schedule: Q01DX001 (ip), vehicle: carboxymethylcellulose (CMC)): 98 % of control
- T/C (dose: 400.0 mg/kg/injection, schedule: Q01DX001 (ip), vehicle: carboxymethylcellulose (CMC)): 98 % of control

Compound: CC(CCN(CC(=O)O)CC(=O)O)N(CC(=O)O)CC(=O)O (stereo unspecified)
- T/C [3]: 98 % of control
- T/C [4]: 101 % of control
- T/C [5]: 93 % of control

Compound: O=C(O)COc1ccc(Cl)cc1C(=O)O
- T/C [6]: 96 % of control
- T/C [1]: 104 % of control
- T/C [2]: 101 % of control

Compound: CC(C)=CCC1=C(O)C2=C(CCCC2)C(=O)C1=O
- T/C (dose: 100.0 mg/kg/injection, schedule: Q01DX001 (ip), vehicle: water): 102 % of control
- T/C (dose: 200.0 mg/kg/injection, schedule: Q01DX001 (ip), vehicle: water): 106 % of control
- T/C (dose: 400.0 mg/kg/injection, schedule: Q01DX001 (ip), vehicle: water): 93 % of control

Compound: COC(=O)N/N=C/C=C/c1ccccc1
- T/C (dose: 25.0 mg/kg/injection, schedule: Q01DX009 (ip), vehicle: saline with Tween-80): 101 % of control
- T/C (dose: 50.0 mg/kg/injection, schedule: Q01DX009 (ip), vehicle: saline with Tween-80): 105 % of control
- T/C [7]: 97 % of control

Compound: c1ccc(-c2cn3ccccc3n2)cc1
- T/C (dose: 100.0 mg/kg/injection, schedule: Q01DX001 (ip), vehicle: saline with Tween-80): 94 % of control
- T/C [6]: 96 % of control
- T/C (dose: 200.0 mg/kg/injection, schedule: Q01DX001 (ip), vehicle: saline with Tween-80): 92 % of control
- T/C [1]: 94 % of control
- T/C (dose: 400.0 mg/kg/injection, schedule: Q01DX001 (ip), vehicle: saline with Tween-80): 94 % of control
- T/C [2]: 98 % of control

Compound: C(=Nc1ccc(N=Cc2ccco2)cc1)c1ccco1
- T/C (dose: 87.5 mg/kg/injection, schedule: Q01DX009 (ip), vehicle: Klucel (hydroxypropylcellulose) (HPC)): 93 % of control
- T/C (dose: 175.0 mg/kg/injection, schedule: Q01DX009 (ip), vehicle: Klucel (hydroxypropylcellulose) (HPC)): 100 % of control
- T/C (dose: 350.0 mg/kg/injection, schedule: Q01DX009 (ip), vehicle: Klucel (hydroxypropylcellulose) (HPC)): 97 % of control

Compound: O=NN1CC2CCC1CC2
- T/C (dose: 2.5 mg/kg/injection, schedule: Q01DX009 (ip), vehicle: saline): 109 % of control
- T/C (dose: 5.0 mg/kg/injection, schedule: Q01DX009 (ip), vehicle: saline): 109 % of control
- T/C (dose: 10.0 mg/kg/injection, schedule: Q01DX009 (ip), vehicle: saline): 102 % of control

Compound: O=C1CCCC/C1=C/c1ccc(Cl)cc1
- T/C [8]: 95 % of control
- T/C [6]: 103 % of control
- T/C [9]: 98 % of control
- T/C [1]: 106 % of control
- T/C [10]: 101 % of control
- T/C [2]: 105 % of control

Compound: Cc1c(Cl)cccc1NC(=O)c1cccc([N+](=O)[O-])c1
- T/C [8]: 103 % of control
- T/C [6]: 96 % of control
- T/C [9]: 95 % of control
- T/C [1]: 93 % of control
- T/C [10]: 94 % of control
- T/C [2]: 91 % of control

Compound: Oc1ccccc1C=NCCCN1CCOCC1.Oc1ccccc1C=NCCCN1CCOCC1.[Co]
- T/C (dose: 12.5 mg/kg/injection, schedule: Q01DX001 (ip), vehicle: saline): 98 % of control
- T/C (dose: 25.0 mg/kg/injection, schedule: Q01DX001 (ip), vehicle: saline): 100 % of control
- T/C (dose: 50.0 mg/kg/injection, schedule: Q01DX001 (ip), vehicle: saline): 98 % of control

Compound: N/N=C1/CCc2ccccc21
- T/C (dose: 100.0 mg/kg/injection, schedule: Q01DX001 (ip), vehicle: Klucel (hydroxypropylcellulose) (HPC)): 90 % of control
- T/C (dose: 200.0 mg/kg/injection, schedule: Q01DX001 (ip), vehicle: Klucel (hydroxypropylcellulose) (HPC)): 112 % of control

Compound: C=CCNC(=S)Nc1cccc(C(C)OC(=O)NC(C)(C)C)c1 (stereo unspecified)
- T/C [7]: 106 % of control
- T/C (dose: 100.0 mg/kg/injection, schedule: Q04DX003 (ip), vehicle: saline with Tween-80): 95 % of control
- T/C (dose: 200.0 mg/kg/injection, schedule: Q01DX009 (ip), vehicle: saline with Tween-80): 107 % of control
- T/C (dose: 200.0 mg/kg/injection, schedule: Q04DX003 (ip), vehicle: saline with Tween-80): 93 % of control
- T/C (dose: 400.0 mg/kg/injection, schedule: Q04DX003 (ip), vehicle: saline with Tween-80): 94 % of control

Compound: C/C(=C\COc1ccccc1)CCC1OC1(C)C (stereo unspecified)
- T/C (dose: 100.0 mg/kg/injection, schedule: Q04DX002 (ip), vehicle: saline with Tween-80): 100 % of control
- T/C (dose: 200.0 mg/kg/injection, schedule: Q04DX002 (ip), vehicle: saline with Tween-80): 93 % of control
- T/C (dose: 400.0 mg/kg/injection, schedule: Q04DX002 (ip), vehicle: saline with Tween-80): 104 % of control

Compound: CC(C)CCC[C@@H](C)[C@H]1CC[C@H]2[C@@H]3C[C@@H](Br)[C@@]4(Br)C[C@@H](Cl)CC[C@]4(C)[C@H]3CC[C@]12C
- T/C [11]: 102 % of control
- T/C [12]: 107 % of control
- T/C [13]: 96 % of control
- T/C [14]: 96 % of control

Compound: CCOC(=O)C1(C(C)=O)CC=CC1
- T/C [3]: 100 % of control
- T/C [4]: 104 % of control
- T/C [5]: 100 % of control

Compound: Cc1cccc(C2NC(=S)N3C(c4cccc(C)c4)NC(=S)N23)c1 (stereo unspecified)
- T/C (dose: 100.0 mg/kg/injection, schedule: Q01DX009 (ip), vehicle: gum acacia): 100 % of control
- T/C (dose: 100.0 mg/kg/injection, schedule: Q04DX003 (ip), vehicle: gum acacia): 88 % of control
- T/C (dose: 200.0 mg/kg/injection, schedule: Q01DX009 (ip), vehicle: gum acacia): 100 % of control
- T/C (dose: 200.0 mg/kg/injection, schedule: Q04DX003 (ip), vehicle: gum acacia): 88 % of control
- T/C (dose: 400.0 mg/kg/injection, schedule: Q01DX009 (ip), vehicle: gum acacia): 91 % of control
- T/C (dose: 400.0 mg/kg/injection, schedule: Q04DX003 (ip), vehicle: gum acacia): 87 % of control

Compound: Oc1c(Cl)cc(Cl)cc1/C=N/Nc1nnc(N/N=C/c2cc(Cl)cc(Cl)c2O)c2ccccc12
- T/C [11]: 111 % of control
- T/C [12]: 101 % of control
- T/C [13]: 102 % of control
- T/C [14]: 102 % of control
